Results: US4312861A, “Pharmaceutical compositions containing N-alkyl-N-(nuclearly-substituted) benzylamines having vasotonia-regulating activity” (Hoechst Aktiengesellschaft, priority 1974, dated 1982)

Key:
[1] = test system: isolated guinea-pig heart; assay: Relative coronary blood-flow change in isolated guinea-pig heart (Langendorff)
Description: (4) Relative coronary blood-flow change in an isolated guinea-pig heart.
The tests were carried out according to the method of Langendorff (Pflugers Archiv. 61 (1895), page 219).
In Table 5, the change in coronary blood flow after administration of various quantities of the test substance is compared with that after administration of the known compounds heptaminol and Aescin sodium salt.

[2] = Toxicity in the mouse (Litchfield and Wilcoxon); format: in vivo; conditions: mouse, in vivo
Description: (6) Toxicity in the mouse
Toxicity was determined according to Litchfield and Wilcoxon (J. Pharmacol. exp. Ther. 97 (1949), page 399) in the mouse. In comparison, the values with the known substance aescin sodium salt were determined. Comparative tests with 0.1% solution, of venous and optical compatibility on the rabbit yielded similar results.

[3] = test system: perfused rabbit ear; assay: Blood-flow change in perfused isolated rabbit ear, vaso-dilator activity (Ringer-Norfenefrin solution)
Description: (3) Blood-flow change in an isolated rabbit ear
The tests were carried out according to Krakow-Pissemski (Pflugers Archiv 151 (1913), page 583 and 156 (1914), page 426). In Table 5a the estimated values of the vaso-constrictor activity in Ringer solutions of varying concentrations are given and in Table 5b values for vasodilatory activity in Ringer-Norfenefrin solutions of varying concentrations are given. As a comparison, the values obtained with the known preparation aescin sodium are given.

[4] = test system: permeability of the capillaries; assay: Histamine rash test (modified Halpern), capillary permeability; format: in vivo; conditions: 30 minutes before histamine
Description: The test according to Halpern (Presse medicale 65 (1949), page 949) was used in modified form. The suppressive effect of the compounds according to the invention on the permeability of the capillaries was tested. The blue coloration induced by intravenous administration of trypan blue at two intracutaneous histamine injection points per animal, (trypan blue administered 2 minutes before the histamine), was estimated according to the following scale of values:
indications of blue coloration
clear blue coloration =4
stong blue coloration =6
The preceding evaluation was made from the combined effect at the two injection points.
The test substances were administered i.p. 30 minutes before the histamine injection.

[5] = test system: isolated portal vein; assay: Isolated rat's portal vein (Berti), increase in tonus
Description: (2) Isolated rat's portal vein
The tests on the rat's portal vein, an organ with its own rhythm, were performed according to the method of Berti et al (Arch. int. Pharmacodyn. 184 (1970), page 328). In Table 4, the increase in tonus at various adrenalin concentrations is given in milligrams. As a comparison, the values for the known substance heptaminol (=6-amino-2-methylheptane-2-ol) are also given.

[6] = test system: writhing movements in the mouse; assay: Writhing test (Winter); format: in vivo; conditions: 50 mg/kg p.o.
Description: The analgesic activity of the compounds according to the invention were studied by the method of Winter et al (Proc. Soc. exp. Biol. Med, 111 (1962), page 544), in which the suppression of writhing movements in the mouse was observed.

[7] = test system: carrageenin oedema in the rat paw; assay: Suppression of carrageenin oedema in the rat paw (Siegmund); format: in vivo; conditions: 200 mg/kg p.o.; 3 h p.a.
Description: (7) Suppression of carrageenin oedema in the rat paw
The inflammation-reducing and anti-oedematous effects on carrageenin and serotonin oedemas in the rat paw were studied according to Siegmund et al (Proc. Soc. exp. Biol. Med. 95 (1957), page 729). The values are given as percentages, based on the values obtained in control tests using a dummy procedure. In this way, the antiphlogistic activity of the substances according to the invention was tested.

[8] = 10 μg (first figure where two are given)
[9] = 30 μg (first figure where two are given)
[10] = 100 μg (first figure where two are given)

Compound: CCCCCCCNCc1c(C)cc(C)cc1C [compound 16]
- Relative change in coronary blood flow [1, 8]: +55
- Relative change in coronary blood flow [1, 9]: +61
- LD50 ([2]; ip): 50 to 100 mg/kg

Compound: CCCCCCCCNCc1c(C)cc(C)cc1C [compound 17]
- Relative change in coronary blood flow [1, 9]: +138
- LD50 ([2]; ip): 25 to 50 mg/kg

Compound: CCCCCCCCCNCc1c(C)cc(C)cc1C [compound 18]
- LD50 ([2]; ip): 50 to 100 mg/kg

Compound: Cc1cc(C)c(CNCCCC(C)C)c(C)c1 [compound 19]
- Relative change in coronary blood flow, second figure after slash ([1]; 10 μg): -15
- Relative change in coronary blood flow [1, 8]: +30
- Relative change in coronary blood flow, second figure after slash ([1]; 30 μg): -10
- Relative change in coronary blood flow [1, 9]: +71
- LD50 ([2]; ip): 100 to 250 mg/kg

Compound: COCCCNCc1c(C)cc(C)cc1C [compound 20]
- Relative change in blood flow, vaso-dilator activity ([3]; 3 × 10^-5 g/ml): +30
- Relative change in blood flow, vaso-dilator activity ([3]; 10^-4 g/ml): +131
- Relative change in blood flow, vaso-dilator activity ([3]; 10^-5 g/ml): +4
- Relative change in blood flow, vaso-dilator activity ([3]; 10^-6 g/ml): +12
- LD50 ([2]; ip): 50 to 100 mg/kg

Compound: CCOCCCNCc1c(C)cc(C)cc1C [compound 21]
- Relative change in coronary blood flow [1, 8]: +22
- Relative change in coronary blood flow [1, 9]: +23
- LD50 ([2]; ip): 50 to 100 mg/kg

Compound: CCCCCCOCCCNCc1c(C)cc(C)cc1C [compound 22]
- Histamine rash test, blue coloration score (0 = none, 2 = indications, 4 = clear, 6 = strong) ([4]; 1.0 mg/kg i.p.): 2.6
- Histamine rash test, blue coloration score (0 = none, 2 = indications, 4 = clear, 6 = strong) ([4]; 3.0 mg/kg i.p.): 1.3
- Increase in tonus, isolated rat's portal vein ([5]; 10^-4 g/ml): +271 milligrams
- Increase in tonus, isolated rat's portal vein ([5]; 10^-5 g/ml): +225 milligrams
- Increase in tonus, isolated rat's portal vein ([5]; 10^-6 g/ml): +65 milligrams
- Increase in vasotonus compared with heptaminol ([5]; in words): distinctly stronger increase in vasotonus than the comparison substance heptaminol
- Relative change in coronary blood flow [1, 9]: +109
- Relative change in blood flow, vaso-dilator activity ([3]; 3 × 10^-5 g/ml): 0
- LD50 ([2]; ip): 25 to 50 mg/kg

Compound: Cc1cc(C)c(CNCCCOC(C)C)c(C)c1 [compound 23]
- LD50 ([2]; ip): 100 to 250 mg/kg

Compound: CCCC(C)NCc1c(C)cc(C)cc1C (stereo not shown) [compound 24]
- LD50 ([2]; ip): 50 to 100 mg/kg

Compound: CCCCC(C)NCc1c(C)cc(C)cc1C (stereo not shown) [compound 25]
- Histamine rash test, blue coloration score (0 = none, 2 = indications, 4 = clear, 6 = strong) ([4]; 3.0 mg/kg i.p.): 1.3
- Histamine rash test, blue coloration score (0 = none, 2 = indications, 4 = clear, 6 = strong) ([4]; 10.0 mg/kg i.p.): 1.4
- Suppression of writhing movements [6]: 46%
- Relative change in blood flow, vaso-dilator activity ([3]; 3 × 10^-6 g/ml): +39
- Relative change in blood flow, vaso-dilator activity ([3]; 10^-4 g/ml): +147
- Relative change in blood flow, vaso-dilator activity ([3]; 10^-5 g/ml): +93
- Relative change in blood flow, vaso-dilator activity ([3]; 10^-6 g/ml): +1
- Relative change in blood flow, vaso-dilator activity ([3]; 10^-7 g/ml): +3
- LD50 ([2]; ip): 50 to 100 mg/kg

Compound: CCC(C)CC(C)NCc1c(C)cc(C)cc1C (stereo not shown) [compound 28]
- Histamine rash test, blue coloration score (0 = none, 2 = indications, 4 = clear, 6 = strong) ([4]; 3.0 mg/kg i.p.): 2.9
- Increase in tonus, isolated rat's portal vein ([5]; 10^-4 g/ml): +84 milligrams
- Increase in tonus, isolated rat's portal vein ([5]; 10^-5 g/ml): +57 milligrams
- Increase in tonus, isolated rat's portal vein ([5]; 10^-6 g/ml): +21 milligrams
- Relative change in coronary blood flow [1, 9]: +118
- Relative change in coronary blood flow [1, 10]: +226
- Relative change in blood flow, vaso-dilator activity ([3]; 3 × 10^-5 g/ml): +47
- LD50 ([2]; ip): 50 to 100 mg/kg

Compound: Cc1cc(C)c(CNC(C)CCCC(C)C)c(C)c1 (stereo not shown) [compound 29]
- Histamine rash test, blue coloration score (0 = none, 2 = indications, 4 = clear, 6 = strong) ([4]; 1.0 mg/kg i.p.): 3.3
- Histamine rash test, blue coloration score (0 = none, 2 = indications, 4 = clear, 6 = strong) ([4]; 3.0 mg/kg i.p.): 1.7
- Relative change in coronary blood flow [1, 9]: +111
- Relative change in blood flow, vaso-dilator activity ([3]; 3 × 10^-5 g/ml): +19
- LD50 ([2]; ip): 50 to 100 mg/kg

Compound: CCCCCC(C)N(Cc1c(C)cc(C)cc1C)CP(C)(C)=O (stereo not shown) [compound 30]
- Relative change in coronary blood flow [1, 8]: +158
- Relative change in coronary blood flow [1, 9]: +211
- Relative change in coronary blood flow [1, 10]: +232
- Relative change in blood flow, vaso-dilator activity ([3]; 3 × 10^-5 g/ml): +67
- Relative change in blood flow, vaso-dilator activity ([3]; 10^-5 g/ml): +79
- LD50 ([2]; ip): 100 to 250 mg/kg

Compound: Cc1cc(C)c(CNC(C)CCCC(C)(C)O)c(C)c1 (stereo not shown) [compound 31]
- Histamine rash test, blue coloration score (0 = none, 2 = indications, 4 = clear, 6 = strong) ([4]; 10.0 mg/kg i.p.): 2.6
- Suppression of carrageenin oedema in the paw (antiphlogistic activity) [7]: 26%
- Relative change in blood flow, vaso-dilator activity ([3]; 10^-4 g/ml): +87
- Relative change in blood flow, vaso-dilator activity ([3]; 10^-5 g/ml): +41
- Relative change in blood flow, vaso-dilator activity ([3]; 10^-6 g/ml): +12
- LD50 ([2]; iv): 50 to 100 mg/kg
